From BindingDB's records for doi:10.1021/jm031121n (Novo Nordisk, 2004)

Target: not listed separately
Assay: Inhibitory activity against rabbit muscle glycogen phosphorylase a in the absence of AMP
For `CCN1C(C)=C(C(=O)OC(C)C)[C@@H](c2ccccc2)C(C(=O)O)=C1C(=O)O` [(S)-1-Ethyl-6-methyl-4-phenyl-1,4-dihydro-pyridine-2,3,5-tricarboxylic acid 5-isopropyl ester], the Ki was 11 nM.

Target: Glycogen phosphorylase, liver form (Sus scrofa)
Assay: In vitro inhibition of pig liver Glycogen phosphorylase A.
In the case of `Cc1ccc(Oc2ccc(C(=O)O)c(C(=O)O)c2)c(NC(=O)c2cccc([N+](=O)[O-])c2)c1` [4-[4-Methyl-2-(3-nitro-benzoylamino)-phenoxy]-phthalic acid], the IC50 is reported as 450 nM. In the case of `O=C(Nc1ccccc1Oc1ccc(C(=O)O)c(C(=O)O)c1)c1ccccc1` [4-(2-Benzoylamino-phenoxy)-phthalic acid], the IC50 is reported as > 200000 nM. With `O=C(Nc1cc(F)ccc1Oc1ccc(C(=O)O)c(C(=O)O)c1)c1cccc([N+](=O)[O-])c1` [4-[4-Fluoro-2-(3-nitro-benzoylamino)-phenoxy]-phthalic acid] the IC50 was 2500 nM. For `O=C(O)c1cccc(C(=O)Nc2ccccc2Oc2ccc(C(=O)O)c(C(=O)O)c2)c1` [4-[2-(3-Carboxy-benzoylamino)-phenoxy]-phthalic acid], the IC50 was > 100000 nM. Work on `N#Cc1ccc(Oc2ccc(C(=O)O)c(C(=O)O)c2)c(NC(=O)c2cccc([N+](=O)[O-])c2)c1` [4-[4-Cyano-2-(3-nitro-benzoylamino)-phenoxy]-phthalic acid] yielded an IC50 of 2200 nM. With `O=C(Nc1ccccc1Oc1ccc(C(=O)O)c(C(=O)O)c1)c1ccc(Cl)c(Cl)c1` [4-[2-(3,4-Dichloro-benzoylamino)-phenoxy]-phthalic acid] the IC50 was > 50000 nM. `Cc1cc(Oc2ccc(C(=O)O)c(C(=O)O)c2)c(NC(=O)c2cccc([N+](=O)[O-])c2)cc1NC(=O)c1cccc([N+](=O)[O-])c1` [4-[5-Methyl-2,4-bis-(3-nitro-benzoylamino)-phenoxy]-phthalic acid] gave an IC50 of 700 nM. In the case of `CC(=O)Nc1ccc(Oc2ccc(C(=O)O)c(C(=O)O)c2)c(NC(=O)c2cccc([N+](=O)[O-])c2)c1` [4-[4-Acetylamino-2-(3-nitro-benzoylamino)-phenoxy]-phthalic acid], the IC50 is reported as 140 nM. Molecule `O=C(Nc1cc(Br)ccc1Oc1ccc(C(=O)O)c(C(=O)O)c1)c1cccc([N+](=O)[O-])c1` [4-[4-Bromo-2-(3-nitro-benzoylamino)-phenoxy]-phthalic acid] has an IC50 of 250 nM. Work on `O=C(Nc1ccc(Oc2ccc(C(=O)O)c(C(=O)O)c2)c(NC(=O)c2cccc([N+](=O)[O-])c2)c1)c1ccccc1` [4-[4-Benzoylamino-2-(3-nitro-benzoylamino)-phenoxy]-phthalic acid] yielded an IC50 of 120 nM. For `Cc1ccc(C(=O)Nc2ccccc2Oc2ccc(C(=O)O)c(C(=O)O)c2)cc1` [4-[2-(4-Methyl-benzoylamino)-phenoxy]-phthalic acid], the IC50 was > 30000 nM. `O=C(Nc1cc(C(F)(F)F)ccc1Oc1ccc(C(=O)O)c(C(=O)O)c1)c1cccc([N+](=O)[O-])c1` [4-[2-(3-Nitro-benzoylamino)-4-trifluoromethyl-phenoxy]-phthalic acid] showed an IC50 of 1800 nM. For `O=C(Nc1ccccc1Oc1ccc(C(=O)O)c(C(=O)O)c1)c1ccc(Cl)cc1` [4-[2-(4-Chloro-benzoylamino)-phenoxy]-phthalic acid], the IC50 was > 200000 nM.

Target: Glycogen phosphorylase, muscle form (Oryctolagus cuniculus) (UniProt P00489)
Sequence (P00489 whole entry, looked up): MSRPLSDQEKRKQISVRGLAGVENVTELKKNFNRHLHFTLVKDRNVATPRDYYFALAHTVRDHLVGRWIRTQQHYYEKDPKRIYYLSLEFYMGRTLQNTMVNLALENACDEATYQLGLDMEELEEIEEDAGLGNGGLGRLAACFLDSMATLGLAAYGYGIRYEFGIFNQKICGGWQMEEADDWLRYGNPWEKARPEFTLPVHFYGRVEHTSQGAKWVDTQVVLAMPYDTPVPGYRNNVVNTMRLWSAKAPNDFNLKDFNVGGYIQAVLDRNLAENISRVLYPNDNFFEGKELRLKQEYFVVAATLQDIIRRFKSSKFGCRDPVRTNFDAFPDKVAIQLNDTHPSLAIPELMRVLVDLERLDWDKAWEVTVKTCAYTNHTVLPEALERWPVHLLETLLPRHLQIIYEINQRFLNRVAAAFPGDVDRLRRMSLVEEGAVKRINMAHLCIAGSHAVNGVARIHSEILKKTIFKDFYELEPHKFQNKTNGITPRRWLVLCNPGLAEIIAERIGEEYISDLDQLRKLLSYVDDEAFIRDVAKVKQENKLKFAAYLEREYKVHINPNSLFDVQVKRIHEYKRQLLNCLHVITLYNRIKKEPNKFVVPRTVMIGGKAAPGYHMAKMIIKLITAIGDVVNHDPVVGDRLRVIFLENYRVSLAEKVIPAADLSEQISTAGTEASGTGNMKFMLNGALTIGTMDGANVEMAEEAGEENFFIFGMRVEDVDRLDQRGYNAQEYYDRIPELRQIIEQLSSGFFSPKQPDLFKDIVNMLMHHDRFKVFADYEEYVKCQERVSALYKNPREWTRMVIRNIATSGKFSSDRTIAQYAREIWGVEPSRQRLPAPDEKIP
Assay: Inhibition of Rabbit muscle glycogen phosphorylase B.
For `O=C(O)c1cccc(C(=O)Nc2ccccc2Oc2ccc(C(=O)O)c(C(=O)O)c2)c1` [4-[2-(3-Carboxy-benzoylamino)-phenoxy]-phthalic acid], the IC50 was > 200000 nM. Work on `CC(=O)c1cccc(C(=O)Nc2ccccc2Oc2ccc(C(=O)O)c(C(=O)O)c2)c1` [4-[2-(3-Acetyl-benzoylamino)-phenoxy]-phthalic acid] yielded an IC50 of 50000 nM. `COc1cccc(C(=O)Nc2ccccc2Oc2ccc(C(=O)O)c(C(=O)O)c2)c1` [4-[2-(3-Methoxy-benzoylamino)-phenoxy]-phthalic acid] showed an IC50 of 50000 nM.

Target: Glycogen phosphorylase, muscle form (Oryctolagus cuniculus) (UniProt P00489)
Assay: Inhibitory activity against rabbit Muscle glycogen phosphorylase b
Work on `O=C1NC(=O)[C@]2(C[C@H](CO)[C@@H](O)[C@H](O)[C@H]2O)N1` [(6S,7S,8R,9R)-6,7,8-Trihydroxy-9-hydroxymethyl-1,3-diaza-spiro[4.5]decane-2,4-dione] yielded a Ki of 3000 nM.
